{"source": "patent US20140329912A1", "about": "“CONTRACEPTIVE COMPOSITIONS AND METHODS OF CONTRACEPTION” (INTEGRITY PHARMACEUTICALS, LLC, priority 2011, published 2014)", "key": {"Sperms [1]": {"test_system": "Sperms", "test": "Real-Time PCR Stress and Toxicity PathwayFinder RT2 Profiler array on treated sperm", "assay_type": "cell-based, mice", "settings": "50 ppm", "description": "(§1) Male BALB/c mice (12-16 week old) were euthanized by CO2-inhalation. The cauda epididymes was clipped and the upper portions of the vas deferens freed from surrounding tissue. Three-four cuts were made using scissors and forceps across the epididymes and several cuts along the length of the vas deferens. Sperm were allowed to swim out of the tissue. The dish was placed in a 5% CO2 incubator set at 37° C. for 10-15 minutes. The solution of sperm was diluted (50 μl sperm+450 μl complete medium) in Whittens/HCO3/BSA. Sperm was removed from the very top or sides of sperm drop to obtain the sperm with highest motility. The dish was then returned to the 5% CO2 incubator set at 37° C. to allow the sperm to capacitate for 1-3 hrs prior to use.\nSperms (10^4) were placed in 96-well plate in complete media and treated with n-propyl bromide (50 ppm) or phosphate buffered saline (control) and incubated for 10 minutes in a 5% CO2 incubator set at 37° C. The dish with sperm was then washed 3-times with phosphate buffered saline and returned to the 5% CO2 incubator set at 37° C. for a further 24 hours. Sperm were then collected by centrifugation and subjected to the Stress and Toxicity PathwayFinder™ RT^2 Profiler™ assay according to the manufacturer's instructions (SA Biosciences, Frederick, Md.). This PCR Array profiles the expression of 84 genes whose expression level is indicative of stress and toxicity. […] The array also includes genes representative of pathways activated by prolonged stress, which range from cell death by apoptosis or necrosis to growth arrest and senescence to proliferation and carcinogenesis."}, "Sperms [2]": {"test_system": "Sperms", "test": "Toxicity screening: cell viability by MTS assay", "assay_type": "cell-based, mice", "settings": "for Average absorbance of cell-reduced MTS at 490 nm: average of trials 1-3; for Corrected average absorbance of cell-reduced MTS at 490 nm: culture media background subtracted", "description": "as §1\nIn addition, cell viability with n-propyl bromide was measured by MTS assay (Promega, Madison, Wis.). MTS [3-(4,5-dimethylthiazol-2-yl)-5-(3-carboxymethoxyphenyl)-2-(4-sulfophenyl)-2H-tetrazolium, inner salt] was utilized according to the manufacturer's instructions. The culture growth medium consisted of Whittens-HEPES complete media, (pH 7.2-7.4) prepared and supplemented with 30 mM NaHCO3 and 10 mg/mL BSA (Bovine Serum Albumin, Sigma A0281, fatty acid free). 250 mL of Whittens-Hepes complete media includes 1461 mg of NaCl, 87.6 mg of KCl, 40.8 mg of KH2PO4, 36.1 mg of MgSO4, 247.8 mg of glucose (dextrose), 22.01 mg of pyruvic acid, 130.92 mg of lactic acid (hemi-Ca), and 1191.5 mg of HEPES. After treatments of the sperms, 30 μL of MTS solution was added to each well and pipetted up and down for ten times to ensure properly mixing and incubation was prolonged for 2 h at 37° C., 5% CO2.\nAbsorbance observations for trials 1-3 and calculated average are expressed as optical density. The absorbance of cell-reduced MTS was read at 490 nm on a spectrophotometer Spectra Max Plus 384, and optical density for absorbance readings is provided in Table II. Absorbance is directly proportional to the number of living cells in culture. Thus, a reduction in absorbance normalized to a control indicates toxicity to a cell. Background absorbance was measured for the culture media only in three trials. An average absorbance was calculated from the three trials. The average optical density for the three trials for the culture media (background) was then subtracted from the average optical density of the various concentration assays for n-propyl bromide (expressed in terms of ppm of n-propyl bromide). Three control trials using only phosphate buffered saline were also measured. The corrected, average optical density of each of the experimental assays was then compared to the corrected, average optical density of the control (PBS only) assays. The comparison is expressed as the percentage of MTS reduction relative to the normalized absorbance of control samples."}}}
{"smiles": "CCCBr", "note": "[n-propyl bromide, 1-bromopropane]", "values": [{"measurement": "cell death, necrosis, mutigencity, or DNA damage (PCR array, Table I)", "setting": "Sperms [1]; a two-fold or greater change might be significant", "value": "no significant cell death, necrosis, mutigencity, or DNA damage was observed"}, {"measurement": "Fold Change, gene APFA1 (Apoptotic peptidase activating factor 1)", "setting": "Sperms [1]; APFA1, NM_001160, Apoptosis and Senescence, 10 minutes, washed, further 24 hours", "value": "−1.04", "unit": "fold"}, {"measurement": "Fold Change, gene ATM (Ataxia telangiectasia mutated)", "setting": "Sperms [1]; ATM, NM_00051, Cell Cycle Control and DNA Damage Repair, 10 minutes, washed, further 24 hours", "value": "−1.01", "unit": "fold"}, {"measurement": "Fold Change, gene BAD (BCL2 associated agonist of cell death)", "setting": "Sperms [1]; BAD, NM_004322, Apoptosis and Senescence, 10 minutes, washed, further 24 hours", "value": "−1.00", "unit": "fold"}, {"measurement": "Fold Change, gene BAX (BCL2 associated X protein)", "setting": "Sperms [1]; BAX, NM_004324, Apoptosis and Senescence, 10 minutes, washed, further 24 hours", "value": "−1.25", "unit": "fold"}, {"measurement": "Fold Change, gene BCL2 (B-cell CLL/lymphoma 2)", "setting": "Sperms [1]; BCL2, NM_000633, Apoptosis and Senescence, 10 minutes, washed, further 24 hours", "value": "−1.24", "unit": "fold"}, {"measurement": "Fold Change, gene BCL2L1 (BCL2-like 1)", "setting": "Sperms [1]; BCL2L1, NM_138578, Apoptosis and Senescence, 10 minutes, washed, further 24 hours", "value": "−1.06", "unit": "fold"}, {"measurement": "Fold Change, gene BRCA1 (Breast cancer1, early onset)", "setting": "Sperms [1]; BRCA1, NM_007294, Cell Cycle Control and DNA Damage Repair, 10 minutes, washed, further 24 hours", "value": "−1.23", "unit": "fold"}, {"measurement": "Fold Change, gene CASP8 (Caspase 8, apoptosis related cysteine peptidase)", "setting": "Sperms [1]; CASP8, NM_001228, Apoptosis and Senescence, 10 minutes, washed, further 24 hours", "value": "−1.57", "unit": "fold"}, {"measurement": "Fold Change, gene CCNE1 (Cyclin E1)", "setting": "Sperms [1]; CCNE1, NM_001238, Cell Cycle Control and DNA Damage Repair, 10 minutes, washed, further 24 hours", "value": "−1.06", "unit": "fold"}, {"measurement": "Fold Change, gene CDC25A (Cell division cycle 25, homolog A)", "setting": "Sperms [1]; CDC25A, NM_001789, Cell Cycle Control and DNA Damage Repair, 10 minutes, washed, further 24 hours", "value": "−1.04", "unit": "fold"}, {"measurement": "Fold Change, gene CDK4 (Cyclin-dependent kinase 4)", "setting": "Sperms [1]; CDK4, NM_000075, Cell Cycle Control and DNA Damage Repair, 10 minutes, washed, further 24 hours", "value": "−1.04", "unit": "fold"}, {"measurement": "Fold Change, gene CDKN2A (Cyclin dependent kinase inhibitor 2A)", "setting": "Sperms [1]; CDKN2A, NM_000077, Cell Cycle Control and DNA Damage Repair, 10 minutes, washed, further 24 hours", "value": "−1.05", "unit": "fold"}, {"measurement": "Fold Change, gene CDKNA1 (Cyclin dependent kinase inhibitor 1A)", "setting": "Sperms [1]; CDKNA1, NM_000389, Cell Cycle Control and DNA Damage Repair, 10 minutes, washed, further 24 hours", "value": "−1.25", "unit": "fold"}, {"measurement": "Fold Change, gene CFLAR (CASP8 & FADD like apoptosis regulator)", "setting": "Sperms [1]; CFLAR, NM_003879, Apoptosis and Senescence, 10 minutes, washed, further 24 hours", "value": "−1.11", "unit": "fold"}, {"measurement": "Fold Change, gene CHEK2 (CHk2, Checkpoint homolog)", "setting": "Sperms [1]; CHEK2, NM_007194, Cell Cycle Control and DNA Damage Repair, 10 minutes, washed, further 24 hours", "value": "−1.02", "unit": "fold"}, {"measurement": "Fold Change, gene E2F1 (E2F transcription factor 1)", "setting": "Sperms [1]; E2F1, NM_005225, Cell Cycle Control and DNA Damage Repair, 10 minutes, washed, further 24 hours", "value": "−1.17", "unit": "fold"}, {"measurement": "Fold Change, gene GZMA (Granzyme A)", "setting": "Sperms [1]; GZMA, NM_006144, Apoptosis and Senescence, 10 minutes, washed, further 24 hours", "value": "−1.26", "unit": "fold"}, {"measurement": "Fold Change, gene HTATIP2 (HIV-1 tat interactive protein 2)", "setting": "Sperms [1]; HTATIP2, NM_006410, Apoptosis and Senescence, 10 minutes, washed, further 24 hours", "value": "−1.38", "unit": "fold"}, {"measurement": "Fold Change, gene MDM2 (MDM2 p53 binding protein homolog)", "setting": "Sperms [1]; MDM2, NM_002392, Cell Cycle Control and DNA Damage Repair, 10 minutes, washed, further 24 hours", "value": "−1.32", "unit": "fold"}, {"measurement": "Fold Change, gene RB1 (Retinoblastoma 1)", "setting": "Sperms [1]; RB1, NM_000321, Cell Cycle Control and DNA Damage Repair, 10 minutes, washed, further 24 hours", "value": "−1.30", "unit": "fold"}, {"measurement": "Fold Change, gene S100A4 (S100 calcium binding protein A4)", "setting": "Sperms [1]; S100A4, NM_002961, Cell Cycle Control and DNA Damage Repair, 10 minutes, washed, further 24 hours", "value": "−1.15", "unit": "fold"}, {"measurement": "Fold Change, gene TERT (Telomerase reverse transcriptase)", "setting": "Sperms [1]; TERT, NM_198253, Apoptosis and Senescence, 10 minutes, washed, further 24 hours", "value": "−1.16", "unit": "fold"}, {"measurement": "Fold Change, gene TNFRS1A (Tumor necrosis factor receptor super family member 1A)", "setting": "Sperms [1]; TNFRS1A, NM_001065, Apoptosis and Senescence, 10 minutes, washed, further 24 hours", "value": "−1.36", "unit": "fold"}, {"measurement": "Fold Change, gene TNFRSF10B (Tumor necrosis factor receptor super family member 10b)", "setting": "Sperms [1]; TNFRSF10B, NM_003842, Apoptosis and Senescence, 10 minutes, washed, further 24 hours", "value": "−1.33", "unit": "fold"}, {"measurement": "Fold Change, gene TNFRSF25 (Tumor necrosis factor receptor super family member 25)", "setting": "Sperms [1]; TNFRSF25, NM_003790, Apoptosis and Senescence, 10 minutes, washed, further 24 hours", "value": "−1.15", "unit": "fold"}, {"measurement": "Fold Change, gene TP53 (Tumor protein p53)", "setting": "Sperms [1]; TP53, NM_000546, Cell Cycle Control and DNA Damage Repair, 10 minutes, washed, further 24 hours", "value": "−1.06", "unit": "fold"}, {"measurement": "% of control (MTS reduction relative to PBS only control)", "setting": "Sperms [2]; 0.1 ppm", "value": 90, "unit": "%"}, {"measurement": "Absorbance of cell-reduced MTS at 490 nm, Trial 1", "setting": "Sperms [2]; 0.1 ppm", "value": 0.2, "unit": "optical density"}, {"measurement": "Absorbance of cell-reduced MTS at 490 nm, Trial 2", "setting": "Sperms [2]; 0.1 ppm", "value": 0.1, "unit": "optical density"}, {"measurement": "Absorbance of cell-reduced MTS at 490 nm, Trial 3", "setting": "Sperms [2]; 0.1 ppm", "value": 0.3, "unit": "optical density"}, {"measurement": "Average absorbance of cell-reduced MTS at 490 nm", "setting": "Sperms [2]; 0.1 ppm", "value": 0.2, "unit": "optical density"}, {"measurement": "Corrected average absorbance of cell-reduced MTS at 490 nm", "setting": "Sperms [2]; 0.1 ppm", "value": 0.0, "unit": "optical density"}, {"measurement": "% of control (MTS reduction relative to PBS only control)", "setting": "Sperms [2]; 1 ppm", "value": 100, "unit": "%"}, {"measurement": "Absorbance of cell-reduced MTS at 490 nm, Trial 1", "setting": "Sperms [2]; 1 ppm", "value": 0.2, "unit": "optical density"}, {"measurement": "Absorbance of cell-reduced MTS at 490 nm, Trial 2", "setting": "Sperms [2]; 1 ppm", "value": 0.4, "unit": "optical density"}, {"measurement": "Absorbance of cell-reduced MTS at 490 nm, Trial 3", "setting": "Sperms [2]; 1 ppm", "value": 0.1, "unit": "optical density"}, {"measurement": "Average absorbance of cell-reduced MTS at 490 nm", "setting": "Sperms [2]; 1 ppm", "value": 0.2, "unit": "optical density"}, {"measurement": "Corrected average absorbance of cell-reduced MTS at 490 nm", "setting": "Sperms [2]; 1 ppm", "value": 0.1, "unit": "optical density"}, {"measurement": "% of control (MTS reduction relative to PBS only control)", "setting": "Sperms [2]; 5 ppm", "value": 100, "unit": "%"}, {"measurement": "Absorbance of cell-reduced MTS at 490 nm, Trial 1", "setting": "Sperms [2]; 5 ppm", "value": 0.2, "unit": "optical density"}]}
